In US20260297136A1, “PEPTIDES WITH LIPOLYTIC, ANTI-LIPOGENIC, ANTIFIBROTIC AND ANTI-INFLAMMATORY ACTIVITY” (FUNDACIÓ HOSPITAL UNIVERSITARI VALL D'HEBRON - INSTITUT DE …, priority 2023, published 2026):

Columns and labels:
HepG2 cells [1] = test: Hepatic lipogenesis gene expression (ACC, FAS, ACLY mRNA by RTPCR) in HepG2 cells, Example 2; assay type: cell-based, human; details: 10 μM, 24 h, relative to 18S
Method: FIG. 5 Human hepatoblastoma cell line HepG2 was treated with vehicle (DMSO) or 10 μM of GP4, GP7, GP8 or GP9 for 24 h. RNA was extracted and mRNA levels of Acetyl-CoA Carboxylase (ACC), Fatty Acid Synthase (FAS) and ATP-Citrate Lyase (ACLY) relative to 18S were measured by RTPCR.
Cell culture reagents were from Life Technologies Inc (Invitrogen SA, Barcelona, Spain). HepG2 hepatoblastoma cells (cat. no. HB-8065; ATCC, LGC Standards SLU, Barcelona, Spain) were maintained in Dulbecco's modified Eagle medium (DMEM) supplemented with 10% fetal bovine serum and antibiotics. HepG2 cells were treated with vehicle or 10 μM of GP4, GP7, GP8 and GP9 for 24 h. LX-2 human hepatic stellate cells (SCC064) were maintained in DMEM supplemented with 2% fetal bovine serum and antibiotics. For experiments, LX-2 were cultured for 24 h in DMEM 0.2% FBS and treated for 24 h with vehicle or TGFβ1 (20 ng/ml) in the absence or presence of 8 μM of GP4, GP7, GP8 and GP9 for 24 h. At the end of the experiment's cells were harvested for gene expression analysis.
Total RNA was extracted from HepG2 and LX-2 cells using TRIzol reagent (Invitrogen SA). Reverse transcription was performed at 42° C. for 50 minutes using […] of total RNA, 200 U of Superscript II, and an oligo-dT primer and reagents provided by Invitrogen. An aliquot of the reverse transcription product was amplified in a […] reaction using SYBRGreen (Invitrogen SA) with appropriate oligonucleotide primer pairs corresponding to human ACC, FAS, ACLY, Col1A1 and 18S (shown in table 7). Results were analyzed using the 7000 Sequence Detection System program (Applied Biosystems, Thermo Fisher Scientific, Barcelona, Spain) (Sex Hormone-Binding Globulin Reduction in Metabolic Disorders May Play a Role in NAFLD Development.Saez-Lopez C, Barbosa-Desongles A, Hernandez C, Dyer R A, Innis S M, Simo R, Selva D M. Endocrinology. 2017 Mar. 1; 158(3):545-559. doi: 10.1210/en.2016-1668).

human mature adipocytes = test: Lipolysis in human mature adipocytes (glycerol production), Example 2; assay type: cell-based; details: 10 μM, 16 h, with respect to control cells
Method: FIG. 7. Mature human subcutaneous adipocytes were treated with vehicle (DMSO), 3 μM of Isoproterenol or 10 μM of GP4, GP8 or GP9 for 16 h. Glycerol concentration was assessed using a Lipolysis Assay Kit (Tebu-bio). Lipolysis induction was calculated with respect to the control cells treated with DMSO.
Human preadipocytes and cell culture reagents were from purchased from Tebu-Bio (Tebu-bio, Barcelona, Spain) and differentiation protocol was done following the manufacturer's instructions. Human adipocytes were maintained in a humidified incubator with 5% CO2 at 37° C. (Sex hormone-binding globulin overexpression protects against high-fat diet-induced obesity in transgenic male mice. Saez-Lopez C, Villena J A, Simo R, Selva D M. J Nutr Biochem. 2020 November; 85:108480. doi: 10.1016/j.jnutbio.2020.108480).
Lipolysis assays were performed using a Lipolysis Kit (Tebu-Bio) following the manufacturer's instructions as previously described.

HepG2 cells [2] = test: Hepatic lipogenic key enzymes in HepG2 cells in the presence of 30 mM fructose (2 h), Example 7; assay type: cell-based, human; details: 40 μg/ml
Method: FIG. 34. Effects of different peptides and SHBG in reducing hepatic lipogenic key enzymes in the presence of 30 mM fructose. Each bar within each group represents mRNA levels of a key hepatic lipogenic enzyme, from left to right: Acetyl-CoA Carboxylase (ACC), ATP Citrate Lyase (ACLY) and Fatty Acid Synthase (FAS), and a key transcription factor regulating several lipogenic enzymes such as PPARγ (PPARγ).
(§1) Cell culture reagents were from Life Technologies Inc (Invitrogen SA, Barcelona, Spain). HepG2 hepatoblastoma cells (cat. no. HB-8065; ATCC, LGC Standards SLU, Barcelona, Spain) were maintained in Dulbecco's modified Eagle medium (DMEM) supplemented with 10% fetal bovine serum and antibiotics.
(§2) • HepG2 cells were cultured for 5 day in the absence or presence of 30 mM fructose. Cells cultured in 30 mM fructose were daily treated with vehicle, Telmisartan, Semaglutide or EDL6D. • HepG2 cells were cultured for 24 h in the absence or presence of GP6 (40 μg/ml), GP10 (40 μg/ml), GP11 (40 μg/ml), GP12 (40 μg/ml), GP13 (40 μg/ml) or SHBG (20 nM). • HepG2 cells were cultured in the absence or presence of 30 mM fructose and treated for 2 h with vehicle or GP4 (40 μg/ml), GP6 (40 μg/ml), GP7 (40 μg/ml), GP8 (40 μg/ml), GP9 (40 μg/ml), GP10 (40 μg/ml), GP11 (40 μg/ml), GP12 (40 μg/ml), GP13 (40 μg/ml) or SHBG (20 nM).
(§3) Total RNA was extracted from HepG2 and LX-2 cells using TRIzol reagent (Invitrogen SA). Reverse transcription was performed at 42° C. for 50 minutes using […] of total RNA, 200 U of Superscript II, and an oligo-dT primer and reagents provided by Invitrogen. An aliquot of the reverse transcription product was amplified in a […] reaction using SYBRGreen (Invitrogen SA) with appropriate oligonucleotide primer pairs corresponding to human SHBG, ACC, FAS, ACLY, PPARG, and 18S and mouse ACC, FAS, ACLY, PPARG, Col1A1 and 18S. Results were analyzed using the 7000 Sequence Detection System program (Applied Biosystems, Thermo Fisher Scientific, Barcelona, Spain) (Shez-Lopez et al Endocrinology 2017).

[3] = test system: obesity and fatty liver disease mouse model; test: Therapeutic effects in an obesity and fatty liver disease mouse model, Example 6; assay type: in vivo, C57BL6/J male mice; details: Telmisartan 5 mg/kg/day in drinking water, 10 weeks
Method: C57BL6/J male mice were purchased and kept for quarantine and acclimatization for a period of about 7 days before initiation of every experiment. Mice were housed in clean and sterilized mice cages and maintained in a controlled environment with 22+3° C. temperature, 50+20% humidity, a light/dark cycle of 12 hours each and 15-20 fresh air changes per hour.
For Obesity and NAFLD induction, the animals were fed ad libitum, either with chow diet (150SP-10, Safe Diets) or 45% high-fat diet (TD.190179, Envigo) plus 30% fructose (F0127, Sigma Aldrich) in drinking water for 20 weeks. The therapeutic effect of a daily subcutaneous injection of GP6 (20 mg/kg/day) in this mouse model was assessed for 10 weeks, starting the treatment on week 10 of the experiment until week 20.
A group of control mice (n=10) was fed with control diet and regular drinking water and a group of mice (n=30) obesity and fatty liver disease was induced for 10 weeks. At this point, mice were randomly divided in three groups of n=10, the first group was treated with daily subcutaneous injections of vehicle (water), the second group was treated with Telmisartan (5 mg/kg/day) in the drinking water and a subcutaneous injection of vehicle, and the third group with daily subcutaneous injection of GP6 (20 mg/kg/day) during 10 weeks.
At the end of the experiment mice were sacrificed, serum samples were extracted, tissues were weighted and part was fixed in paraformaldehyde for histology studies and part immediately frozen at −80 C for mRNA and protein expression studies as well as assessment of triglycerides.
The histology studies, AST and ALT measurements, TG measurements, and the RNA analysis were performed as described in Example 4.

HepG2 cells [4] = test: Hepatic lipogenesis gene expression in HepG2 cells (24 h), Example 7; assay type: cell-based, human; details: 40 μg/ml, vs vehicle
Source text: FIG. 32. Effect of GP6 and modified peptides on hepatic lipogenesis in HepG2 cells. Each bar within each group represents mRNA levels of a key hepatic lipogenic enzyme, from left to right: Acetyl-CoA Carboxylase (ACC), ATP Citrate Lyase (ACLY) and Fatty Acid Synthase (FAS), and a key transcription factor regulating several lipogenic enzymes such as PPARγ (PPARγ).
as §1, §2, §3

Row | Compound | ATP-Citrate Lyase (ACLY) mRNA levels (HepG2 cells [1]) | Acetyl-CoA Carboxylase (ACC) mRNA levels (HepG2 cells [1]) | Fatty Acid Synthase (FAS) mRNA levels (HepG2 cells [1]) | increase of glycerol production (lipolysis) (human mature adipocytes) [%] | fructose-induced expression of ACC (HepG2 cells [2]) | fructose-induced expression of ACLY (HepG2 cells [2]) | fructose-induced expression of FAS (HepG2 cells [2]) | fructose-induced expression of PPARγ (HepG2 cells [2]) | liver triglyceride (TAG) content [3] | liver weight [3] | Total body weight versus control mice ([3]; vs control diet mice) | serum glucose levels ([3]; vs vehicle) | ACC mRNA levels (HepG2 cells [4]) | ACLY mRNA levels (HepG2 cells [4]) | FAS mRNA levels (HepG2 cells [4]) | PPARγ mRNA levels (HepG2 cells [4])
1 | CC[C@@H](C)[C@@H](NC(=O)[C@@H](CCCCN)NC(=O)[C@H](NC(=O)[C@@H](CC(C)C)NC(=O)[C@@H](CC(=O)O)NC(=O)[C@@H](Cc1ccccc1)NC(=O)[C@H](NC(=O)[C@@H](CCSC)NC(=O)[C@H](N)C(C)C)[C@H](C)O)[C@H](C)O)C(=O)N[C@@H](C(=O)N[C@H](CCCCN)C(=O)N[C@@H](C(=O)N[C@H](CO)C(=O)N[C@H](CO)C(=O)N[C@H](CO)C(=O)N[C@H](Cc1ccccc1)C(=O)N[C@H](CCC(=O)O)C(=O)N[C@@H](C(=O)N[C@H](CCCNC(=N)N)C(=O)N[C@@H](C(=O)N[C@H](Cc1c[nH]c2ccccc12)C(=O)N[C@H](CC(=O)O)C(=O)N1CCC[C@@H]1C(=O)N[C@H](CCC(=O)O)C(=O)NCC(=O)N[C@@H](C(=O)N[C@@H](C(=O)N[C@H](Cc1ccccc1)C(=O)N[C@H](Cc1ccc(O)cc1)C(=O)O)[C@H](C)CC)C(C)C)[C@H](C)O)C(C)C)[C@H](C)O)[C@H](C)O [GP4] | did not alter | reduced | increased | 500 | able to reduce | able to reduce | able to reduce | able to reduce | – | – | – | – | – | – | – | –
2 | CC[C@@H](C)[C@@H](NC(=O)[C@H](NC(=O)CNC(=O)[C@@H](CCC(=O)O)NC(=O)[C@H]1CCCN1C(=O)[C@@H](CC(=O)O)NC(=O)[C@@H](Cc1c[nH]c2ccccc12)NC(=O)[C@H](N)[C@H](C)O)C(C)C)C(=O)N[C@H](Cc1ccccc1)C(=O)N[C@H](Cc1ccc(O)cc1)C(=O)NCC(=O)N[C@H](CC(=O)O)C(=O)N[C@@H](C(=O)N[C@H](CC(N)=O)C(=O)N1CCC[C@@H]1C(=O)N[C@H](CCCCN)C(=O)N[C@H](CC(=O)O)C(=O)N[C@H](CC(=O)O)C(=O)N[C@H](Cc1c[nH]c2ccccc12)C(=O)N[C@H](Cc1ccccc1)C(=O)O)[C@H](C)O [GP7] | reduced | reduced | increased | – | able to reduce the expression of ACC and ACLY more effectively than SHBG | able to reduce the expression of ACC and ACLY more effectively than SHBG | had no effect on FAS and PPARγ expression | had no effect on FAS and PPARγ expression | – | – | – | – | – | – | – | –
3 | CCCc1nc2c(C)cc(-c3nc4ccccc4n3C)cc2n1Cc1ccc(-c2ccccc2C(=O)O)cc1 [Telmisartan, reference compound] | – | – | – | – | – | – | – | – | failed to decrease TAG liver content | did not reduced significantly | significantly increased | did not have any effect | – | – | – | –
4 | ATKTSASFEVRTWDPEAVIFY [GP10] | – | – | – | – | able to reduce | able to reduce | able to reduce | able to reduce | – | – | – | – | reduced the mRNA levels | reduced the mRNA levels | reduced the mRNA levels | reduced the mRNA levels
5 | TKTASAFEVRTWDPEGVIFY [GP12] | – | – | – | – | able to reduce | able to reduce | able to reduce | able to reduce | – | – | – | – | reduced all key lipogenic genes except FAS | reduced all key lipogenic genes except FAS | – | reduced all key lipogenic genes except FAS
6 | TKTASAFEVRTWDPEGVIFYGDTNPKDDWF [GP11] | – | – | – | – | able to reduce | able to reduce | able to reduce | able to reduce | – | – | – | – | reduced the mRNA levels | reduced the mRNA levels | reduced the mRNA levels | reduced the mRNA levels
7 | TKTSASFEVRTWDPEGVIFYADTNPKDDWF [GP13] | – | – | – | – | able to reduce the expression of ACC and ACLY more effectively than SHBG | able to reduce the expression of ACC and ACLY more effectively than SHBG | had no effect on FAS | increased PPARγ expression | – | – | – | – | able to reduce | no ACLY and PPARγ | able to reduce | no ACLY and PPARγ
